ChEMBL document CHEMBL1132603

Tests used:
[1] = molecular target: D(1A) dopamine receptor (Rattus norvegicus) (UniProt P18901); experiment: Inhibition of [3H]SCH-23390 binding to rat striatal membrane Dopamine receptor D1
[2] = molecular target: D(2) dopamine receptor (Rattus norvegicus) (UniProt P61169); experiment: Affinity on C6 glioma cells transfected with Dopamine receptor D2L; format: cell-based
[3] = molecular target: D(2) dopamine receptor (Rattus norvegicus) (UniProt P61169); experiment: Inhibition of [3H]spiperone binding to rat striatal membrane Dopamine receptor D2
[4] = molecular target: D(3) dopamine receptor (Rattus norvegicus) (UniProt P19020); conditions: C6
Sequence of D(3) dopamine receptor (Rattus norvegicus) (P19020 whole entry): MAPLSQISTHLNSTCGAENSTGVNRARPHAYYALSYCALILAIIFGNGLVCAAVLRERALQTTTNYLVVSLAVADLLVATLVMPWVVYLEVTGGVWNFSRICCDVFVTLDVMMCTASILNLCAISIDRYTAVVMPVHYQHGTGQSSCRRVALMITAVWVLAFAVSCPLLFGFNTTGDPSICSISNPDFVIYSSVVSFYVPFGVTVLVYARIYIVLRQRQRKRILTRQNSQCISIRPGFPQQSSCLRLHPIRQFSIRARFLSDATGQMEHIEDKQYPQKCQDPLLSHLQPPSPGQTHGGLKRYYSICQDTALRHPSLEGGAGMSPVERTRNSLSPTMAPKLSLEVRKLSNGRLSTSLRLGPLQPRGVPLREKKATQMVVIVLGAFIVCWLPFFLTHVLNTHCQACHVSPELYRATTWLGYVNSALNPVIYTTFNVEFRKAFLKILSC
Description: Affinity on C6 glioma cells transfected with Dopamine receptor D3

Sequence of D(1A) dopamine receptor (Rattus norvegicus) (P18901 whole entry): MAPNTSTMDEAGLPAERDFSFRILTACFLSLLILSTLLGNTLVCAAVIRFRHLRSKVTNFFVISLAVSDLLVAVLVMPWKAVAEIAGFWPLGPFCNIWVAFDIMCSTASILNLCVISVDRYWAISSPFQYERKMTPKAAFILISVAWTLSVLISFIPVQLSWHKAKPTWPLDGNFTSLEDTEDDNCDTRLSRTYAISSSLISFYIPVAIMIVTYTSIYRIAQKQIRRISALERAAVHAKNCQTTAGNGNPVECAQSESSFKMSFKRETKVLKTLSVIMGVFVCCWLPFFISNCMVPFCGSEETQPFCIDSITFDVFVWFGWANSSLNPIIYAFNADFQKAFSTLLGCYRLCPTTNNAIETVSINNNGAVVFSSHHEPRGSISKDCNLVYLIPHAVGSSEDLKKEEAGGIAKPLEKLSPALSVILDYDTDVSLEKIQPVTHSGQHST
Sequence of D(2) dopamine receptor (Rattus norvegicus) (P61169 whole entry): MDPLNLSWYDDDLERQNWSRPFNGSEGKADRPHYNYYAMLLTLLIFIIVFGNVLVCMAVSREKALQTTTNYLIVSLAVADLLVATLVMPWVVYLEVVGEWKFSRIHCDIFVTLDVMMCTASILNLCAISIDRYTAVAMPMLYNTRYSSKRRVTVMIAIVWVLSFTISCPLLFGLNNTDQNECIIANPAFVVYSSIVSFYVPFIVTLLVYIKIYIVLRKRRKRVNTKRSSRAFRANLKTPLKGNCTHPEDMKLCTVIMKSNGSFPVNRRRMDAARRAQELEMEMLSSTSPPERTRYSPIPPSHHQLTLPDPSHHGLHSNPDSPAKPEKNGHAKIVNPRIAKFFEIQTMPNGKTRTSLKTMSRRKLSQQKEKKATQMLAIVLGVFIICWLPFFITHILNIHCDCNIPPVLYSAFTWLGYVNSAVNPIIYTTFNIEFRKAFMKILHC

Compound | K 0.5 [1] [µM] | K 0.5 [2] [nM] | K 0.5 [3] [nM] | K 0.5 [4] [nM]
CCCN1Cc2ccccc2[C@@H]2Cc3nc(N)ncc3C[C@H]21 | > 5 | > 5000 | 45 | 20.2
CN1Cc2ccccc2[C@@H]2Cc3n[nH]cc3C[C@H]21 | > 5 | 3090 | 189 | 187
C=CCN1Cc2ccccc2[C@@H]2Cc3n[nH]cc3C[C@H]21 | > 5 | 1880 | 100 | 73.7
CCCN1Cc2ccccc2[C@@H]2Cc3n[nH]cc3C[C@H]21 | > 5 | 4300 | 209 | 162
O=C(CCCN1CCC2(CC1)C(=O)NCN2c1ccccc1)c1ccc(F)cc1 | – | 0.16 | 0.21 | –
CCCN1CCC[C@@H]2Cc3nc(N)ncc3C[C@H]21 | > 5 | 710 | 4.78 | –
c1ccc2c(c1)CN[C@@H]1Cc3c[nH]nc3C[C@@H]21 | > 5 | > 5000 | 641 | 955
Oc1ccc2c(c1O)Cc1cccc3c1[C@H]2CNC3 | – | 174 | – | –
Oc1cc2c(cc1O)[C@H]1c3ccccc3CN[C@@H]1CC2 | – | 1490 | – | 170
Nc1ncc2c(n1)C[C@H]1c3ccccc3CN[C@@H]1C2 | > 5 | – | 467 | 324
C=CCN1Cc2ccccc2[C@@H]2Cc3nc(N)ncc3C[C@H]21 | > 5 | > 5000 | 102 | 15.8
CN1CCc2cc(Cl)c(O)cc2[C@@H](c2ccccc2)C1 | 0.0004 | – | – | –
